Our source for the IC50 values is PubChem BioAssay AID720578 (The Scripps Research Institute Molecular Screening Center, 2013).

The assay deals with Crimean-Congo hemorrhagic fever virus L protein viral ovarian tumor (vOTU) protease domain. The assay is described as follows: CCHFV vOTU protease inhibitor potency, dose response, biochemical, fluorescence, Pep-AMC substrate (AID 720578). As to conditions: recombinant CCHFV vOTU, Pep-AMC fluorescence cleavage.

Where “and” joins values, the source holds several entries; their conditions need not be identical. Equal values may be shown once. Calls of active or inactive are those of the source. No rule for the calls is given here. A value given as a limit tells only on which side of the number the result lay.

For orientation: IC50 means the point on the concentration scale where inhibition reaches its midpoint.

As to `Cc1ccc(NC2=C(N3CCOCC3)C(=O)c3ccccc3C2=O)cc1`, the IC50 was 4.31 µM.
On to `CC(C)C[C@H](NC(=O)c1[nH]cnc1C(=O)N[C@@H](C)C(=O)OC(C)(C)C)C(=O)OC(C)(C)C`, for which the IC50 is > 115 µM (inactive).
Under `C=CCN1C(=O)/C(=C/c2ccc(OC(C)=O)c(OCC)c2[N+](=O)[O-])SC1=S` stands 7.63 µM.
Under `Cc1cc(C)c(S(=O)(=O)/N=C2\C=C(Nc3ccc(C(=O)O)cc3)C(=O)c3ccccc32)c(C)c1` stands 1.72 µM; under `CC1=C(SCc2ccccc2)C(=O)c2ccccc2C1=O`, 2.51 µM; under `CCc1ccc(S(=O)(=O)Nc2cc(SCC(=O)O)c(O)c3ccccc23)cc1`, 7.64 µM.
With `O=C1NNC(c2ccccc2)=N/C1=C\c1ccccc1Cl`, the IC50 result is “inactive”.
For the compound `C[n+]1cccc2cccc([O-])c21`, the IC50 was 6.41 µM.
Turning to `C[n+]1c(-c2ccccc2)cc2c(=Cc3ccccc3)c3ccccc3n21`, the IC50 is 4.95 µM.
In the case of `C[n+]1c2cc(N)ccc2cc2ccc(N)cc21`, the IC50 is 0.945 µM and 3.14 µM.
Regarding `O=C(O)c1cccc(NC2=C(N3CCOCC3)C(=O)c3ccccc3C2=O)c1`, the IC50 result was “inactive”.
Under `NC1=C(Br)C(=O)c2ncccc2C1=O` stands 0.435 µM.
Under `COc1ccc(/C=N/NC(=O)c2nn(-c3ccc(Cl)cc3)c(=O)c3c(N)scc23)cc1` stands “inactive”; under `CCc1ccc(S(=O)(=O)/N=C2\C=C(Nc3cccc(C(=O)O)c3)C(=O)c3ccccc32)cc1`, 0.833 µM.
In the case of `CCC(COC)Oc1cc(NCc2ccccc2)c2ncn(C(C)C)c2c1` (configuration not stated), the IC50 is 5.43 µM.
For the compound `Cc1ccc(N2C(=O)[C@@H]3[C@H](C2=O)C2c4ccccc4C=CN2[C@@H]3C(=O)c2ccco2)cc1` (some centres not stated), the IC50 is 4.21 µM.
Under `O=C(COC(=O)c1ccc([N+](=O)[O-])s1)Nc1ncc(C(F)(F)F)cc1Cl` stands 8.84 µM; under `CCCCn1c(NS(=O)(=O)c2ccccc2)c(S(=O)(=O)c2ccc(C)cc2)c2nc3ccccc3nc21`, > 115 µM (inactive); under `CC(=O)N(C1=C(Cl)C(=O)c2ccccc2C1=O)C1CCCCC1`, 3.54 µM.
In the case of `CC(=O)c1ccc(NC2=C(N3CCOCC3)C(=O)c3ccccc3C2=O)cc1`, the IC50 result is “inactive”.
With `CCOC(=O)C1CCN(C(=O)c2c(C)oc3c2C(=O)c2ccccc2C3=O)CC1`, the IC50 entry was “inactive”.
Regarding `COc1ccc(-n2c3nc4ccccc4nc3c3c(=N)oc(C)nc32)cc1`, the IC50 entry is “inactive”.
Turning to `CN1CCN(C2=C(Cl)C(=O)c3ccccc3C2=O)CC1`, the IC50 is 0.276 µM.
As to `CN(C)CCCNc1cc(O)c2ncccc2c1`, the IC50 was 5.13 µM.
The figure for `Cc1ccc(NC2=C(N3CCCCC3)C(=O)c3ccccc3C2=O)cc1` is 4.46 µM.
In the case of `Cc1cc2c(cc1C)C(=O)C(Br)=C(N)C2=O`, the IC50 was 5.56 µM.
Turning to `Cc1c(C=O)c(Cl)n(C)c(=O)c1C#N`, the IC50 result is “inactive”.
Consider `O=C(O)c1cccc(NC2=C(n3nnc4ccccc43)C(=O)c3ccccc3C2=O)c1`, for which the IC50 is 4.76 µM.
The figure for `COC(=O)c1nc(-c2ccc3c(n2)C(=O)C(N)=C(OC)C3=O)c(N)c(-c2ccc(OC)c(OC)c2O)c1C` is 0.931 µM; for `CC[n+]1c(-c2ccccc2)c2cc(N)ccc2c2ccc(N)cc21` it is 1.56 µM; for `O=[N+]([O-])c1ccccc1-c1ccc(C(=S)N2CCCC2)o1` it is “inactive”.
Under `COc1ccccc1N=Nc1c(O)[nH]c(=S)[nH]c1=O` stands “inactive”; under `Cc1ccccc1-c1cc2c(nn1)-c1ccccc1C2=O`, 0.457 µM; under `CCn1nc(/C=C/c2ccccc2)nc2c(=O)n(C)c(=O)nc1-2`, 0.276 µM.
Consider `NS(=O)(=O)c1ccc(NC2=CC(=O)C(=O)c3ccccc32)cc1`, for which the IC50 was 4.85 µM.
In the case of `CN(C)c1ccc(C=c2c3cc(O)ccc3n3c2cc(-c2ccccc2)[n+]3C)cc1`, the IC50 result is “inactive”.
Consider `Cc1ccc(Cl)cc1NC1=C/C(=N\S(=O)(=O)c2cccs2)c2ccccc2C1=O`, for which the IC50 is 0.787 µM.
As to `O=C(/C=C/c1ccc([N+](=O)[O-])s1)N1CCCCC1`, the IC50 entry was “inactive”.
The figure for `O=C(/C=C/c1ccc(O)cc1)c1ccc(NC2=C(N3CCCCC3)C(=O)c3ccccc3C2=O)cc1` is 3.35 µM; for `O=C1C(Nc2ccccc2)=C(N2CCCCC2)C(=O)c2ccccc21` it is 4.54 µM; for `COc1cc2c(cc1O)[C@@H]1Cc3ccc(OC)c(O)c3CN1CC2` it is 7.49 µM.
The figure for `COc1cc(NC(=O)COC(=O)c2ccc([N+](=O)[O-])s2)cc(OC)c1OC` is 6.6 µM.
On to `O=C1C=C(Nc2ccccc2)c2ccccc2C1=O`, for which the half-maximal inhibitory concentration (IC50) was 6.87 µM.
Under `Oc1ccccc1CNc1cccc2cccnc12` stands 9.96 µM.
Take `Clc1ccc(C2=CSC3=Nc4cccc5cccc(c45)N23)cc1`: the IC50 result is “inactive”.
On to `Cc1cc(NC2=CC(=O)C(=O)c3ccccc32)no1`, for which the IC50 was 5.6 µM.
The entry for `COCCN1C=C2C(=O)C(C)(OC(=O)C3CCCC3)C(=O)C(c3ccccc3)=C2C=C1CCCC(=O)OC` (configuration not stated) is “inactive”.
Under `NC1=C(Cl)C(=O)c2ccc(S(N)(=O)=O)cc2C1=O` stands 0.127 µM.
Under `COc1ccc(/C=N/NC(=O)c2nn(-c3ccccc3)c(=O)c3c(N)scc23)cc1` stands 8.43 µM.
For the compound `COc1ccc(N2C(=O)[C@@H]3[C@H](C2=O)[C@H]2c4ccccc4C=CN2[C@@H]3C(C)=O)cc1`, the IC50 entry is “inactive”.
Under `O=C1OC(Nc2cc(Br)cc3cccnc23)c2ccccc21` (configuration not stated) stands 5.23 µM; under `O=S(=O)(Nc1cc2nc3ccccc3nc2n1Cc1ccccc1)c1ccc(Cl)cc1`, 2.57 µM; under `COc1ccc(C(C[N+](=O)[O-])c2c(C)[nH]n(-c3ccccc3)c2=O)cc1` (configuration not stated), “inactive”.
The figure for `O=C(c1ccccc1)c1coc2c1C(=O)c1ccccc1C2=O` is 6.61 µM; for `COc1cc2c(cc1OC)-c1c(OC)c(OC)cc3c1C(C2)N(C)CC3` (configuration not stated) it is > 115 µM (inactive).
For the compound `O=C(OCc1nnc(-c2ccccc2)o1)c1ccc([N+](=O)[O-])s1`, the IC50 was 7.52 µM.
Consider `O=C1NC(c2ccc(-c3ccccc3[N+](=O)[O-])o2)C(C(=O)c2ccc(Cl)cc2)C(O)(C(F)(F)F)N1` (configuration not stated), for which the IC50 entry is “inactive”.
Turning to `CC(=O)[C@H]1[C@@H]2C(=O)N(c3cccc(Cl)c3)C(=O)[C@@H]2[C@H]2c3ccccc3C=CN21`, the IC50 result was “inactive”.
As to `COc1ccc2noc3c2c1C(=O)c1ccccc1-3`, the IC50 was 3.08 µM.
The figure for `O=C1C(=NO)CCc2ccccc21` is 3.36 µM; for `O=C(NC(=S)Nc1ccccc1N1CCCC1)c1cccs1` it is “inactive”; for `COc1cc(NCCCCCCN)c2ncccc2c1OC` it is 3.65 µM.
Regarding `Cc1cccc(NC(=O)c2sc3nc4c(c(-c5cccs5)c3c2N)CN(C)CC4)c1`, the IC50 entry was “inactive”.
With `Cc1ccccc1NC1=C/C(=N\S(=O)(=O)c2ccc(C(=O)O)cc2)c2ccccc2C1=O`, the IC50 is 0.257 µM.
Under `c1coc(-c2nnc(-c3ccco3)nn2)c1` stands 9.33 µM; under `O=C(O)CSc1cc(NS(=O)(=O)c2ccc(Cl)cc2)c2ccccc2c1O`, 5 µM; under `O=S(=O)(Nc1cc(Sc2ncn[nH]2)c(O)c2ccccc12)c1ccccc1`, 0.708 µM.
Turning to `COc1cc(NCCCC(C)N)c2ncccc2c1` (configuration not stated), the IC50 is 2.52 µM.
As to `CN1/C(=C\C=C2C(=O)NC(=O)NC2=O)C(C)(C)c2ccccc21`, the IC50 result was “inactive”.
With `CC1(OC(=O)C2CCCC2)C(=O)C=C2C=C(c3ccsc3)N(CCCCO)C=C2C1=O` (configuration not stated), the IC50 entry was “inactive”.
`O=C(COC(=O)c1ccc([N+](=O)[O-])s1)NCc1ccc(F)cc1`: the IC50 is 8.08 µM.
Under `CCOc1ccc2noc3c2c1C(=O)c1ccccc1-3` stands “inactive”.
The entry for `O=c1[nH]c(=S)[nH]c2c1C(c1ccc(Br)cc1)c1c([nH]c(=S)[nH]c1=O)O2` is “inactive”; for `COc1ccccc1NC(=O)COC(=O)c1ccc([N+](=O)[O-])s1` it is 9.94 µM.
Under `O=C1C=C(O)c2[nH]c(=O)ccc2C1=O` stands 4.26 µM; under `CC1COCC(C)N1C1=C(Cl)C(=O)c2ccccc2C1=O` (configuration not stated), 5.07 µM.
Regarding `COC1=C(Br)C(=O)c2nc(C)ccc2C1=O`, the IC50 is 9.43 µM.
The figure for `CC(=O)NC1=C(N(C)C2CCS(=O)(=O)C2)C(=O)c2ccccc2C1=O` (configuration not stated) is 8.88 µM; for `O=c1[nH]c(Nc2ccccc2)cc2cc(Br)ccc12` it is 1 µM; for `Cc1ccc2c(c1C)-c1c(ccc(C)c1C)C(=O)C2=O` it is 7.79 µM.
The figure for `O=C1C=C(Nc2ccccc2C(=O)O)c2ccccc2C1=O` is 3.59 µM.
As for `S=C(Nc1ccc(Cl)cc1)Nc1cccc2cnccc12`, the IC50 was 6.44 µM.
Regarding `O=C1C(SCCO)=C(SCCO)C(=O)c2ccccc21`, the IC50 was 2.15 µM.
For the compound `C[n+]1c2ccccc2nc2ccc(NCCO)cc21`, the IC50 was 5.96 µM.
Under `O=C1C(=O)c2cccnc2-c2ncccc21` stands 5.38 µM; under `O=S(=O)(c1ccc2nc(-c3ccco3)c(-c3ccco3)nc2c1)N1CCOCC1`, “inactive”; under `CC(=O)[C@@H]1[C@@H]2C(=O)N(c3ccc(F)c(Cl)c3)C(=O)[C@@H]2C2c3ccccc3C=CN21` (some centres not stated), “inactive”.
Under `COc1ccc(NC(=S)Nc2ccc3nsnc3c2)cc1` stands 6.79 µM.
For `CCCCn1c(NS(=O)(=O)c2ccccc2)c(C(=O)OCC)c2nc3ccccc3nc21`, the IC50 is > 115 µM (inactive).
As to `O=C(O)c1ccc(NC2=C/C(=N/S(=O)(=O)c3cccs3)c3ccccc3C2=O)cc1`, the IC50 is 0.384 µM.
The entry for `CCOCCCNC1=C(Cl)C(=O)c2ccccc2C1=O` is “inactive”; for `CN=c1sc2c(n1C)C(=O)c1ccccc1C2=O` it is 1.78 µM; for `CC(=O)c1ccc(NC(=S)Nc2cccc3cnccc23)cc1` it is 6.84 µM.
The entry for `C=CCN(CC=C)C(=S)Nc1ccc2nsnc2c1` is “inactive”.
The entry for `CN1CCC/C1=C/C=C1\SC(=S)NC1=O` is “inactive”; for `Cn1nc(-c2ccccn2)nc2c(=O)n(C)c(=O)nc1-2` it is 0.366 µM.
For `O=C1C=C(N2CCCCC2)c2ccccc2C1=O`, the IC50 is 7.75 µM.
